Measured values published in patent publication US9212135B2, “Phenylthioacetate compounds, compositions and methods of use” (Ardea Biosciences, Inc., priority 2010, dated 2015).

Molecular target: T1, URAT1 (Homo sapiens, UniProt Q96S37)
T1 sequence (Q96S37 1-553): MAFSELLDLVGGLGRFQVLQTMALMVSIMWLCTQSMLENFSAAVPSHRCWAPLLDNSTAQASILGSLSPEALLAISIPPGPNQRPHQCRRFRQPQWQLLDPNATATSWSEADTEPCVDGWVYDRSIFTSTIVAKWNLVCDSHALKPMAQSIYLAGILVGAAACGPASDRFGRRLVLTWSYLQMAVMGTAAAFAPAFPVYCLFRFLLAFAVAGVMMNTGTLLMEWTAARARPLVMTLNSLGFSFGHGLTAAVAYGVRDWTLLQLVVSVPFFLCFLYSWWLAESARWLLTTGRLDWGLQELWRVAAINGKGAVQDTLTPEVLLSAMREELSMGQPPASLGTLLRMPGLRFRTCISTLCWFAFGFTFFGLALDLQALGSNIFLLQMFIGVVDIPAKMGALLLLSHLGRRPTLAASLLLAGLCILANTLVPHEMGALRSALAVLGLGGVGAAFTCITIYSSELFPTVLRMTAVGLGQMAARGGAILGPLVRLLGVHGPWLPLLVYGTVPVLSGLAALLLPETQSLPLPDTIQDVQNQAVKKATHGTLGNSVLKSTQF
Assay: URAT1-model assay (14C-uric acid transport in HEK293/URAT1-model cells)
Details: 125 μM 14C-uric acid, 10 minutes at room temperature, read-out: URAT-1 model cell-based C14 EC50 Ranking
Experimental: HEK293 human embryonic kidney cells (ATCC# CRL-1573) were propagated in EMEM tissue culture medium as described by ATCC in an atmosphere of 5% CO2 and 95% air. Transfections of HEK293 cells with a model URAT1 construct was performed using L2000 transfection reagent (Invitrogen) as described by the manufacturer. After 24 h the transfected cells were split into 10 cm tissue culture plates and grown for 1 day after which the medium was replaced with fresh growth medium containing G418 (Gibco) at 0.5 mg/ml final concentration. Drug-resistant colonies were selected after approximately 8 days and then tested for ^14C-uric acid transport activity. The HEK293/URAT1-model cells are plated on Poly-D-Lysine Coated 96-well Plates at a density of 125,000 cells per well.
Cells were grown overnight (20-26 hours) at 37° C. in an incubator. Plates were allowed to come to room temperature and media was washed out with one wash of 250 μl of Wash Buffer (125 mM Na Gluconate, 10 mM Hepes ph 7.3). Compound or vehicle is added in assay buffer with ^14C-Uric Acid for a final concentration of 125 μM Uric Acid with a specific activity of 54 mCi/mmol. Assay Buffer is 125 mM Sodium Gluconate, 4.8 mM Potassium Gluconate, 1.2 mM Potassium phosphate, monobasic, 1.2 mM magnesium sulfate, 1.3 mM Ca Gluconate, 5.6 mM Glucose, 25 mM HEPES, pH 7.3. Plates were incubated at room temperature for 10 minutes then washed 3 times with 50 μl Wash Buffer and 3 times with 250 μl Wash Buffer. Microscint 20 Scintillation Fluid was added and plates were incubated overnight at room temperature to equilibrate. Plates are then read on the TopCount Plate Reader and an EC50 value generated. (See Enomoto et al, Nature, 2002, 417, 447-451 and Anzai et al, J. Biol. Chem., 2004, 279, 45942-45950.)
Compounds as described herein were tested according to the protocol described above for the URAT-1 model assay; the results are shown in the table below wherein: […]

Compound | EC50
CC(C)(Sc1ccccc1-c1ccc(C(N)=O)cc1)C(=O)O [Example 1B] | 500 to 10000 nM
CC(C)(Sc1ccccc1-c1ccc(CO)cc1)C(=O)O [Example 1C] | 50 to 500 nM
N#Cc1ccc(-c2ccccc2SC2(C(=O)O)CCC2)cc1 [Example 1D] | 1 to 50 nM
O=C(O)C1(Sc2ccccc2-c2ccc(CO)cc2)CCC1 [Example 1E] | 50 to 500 nM
O=C(O)C1(Sc2ccc(F)cc2-c2ccc(C3CC3)cc2)CCC1 [Example 1F] | 500 to 10000 nM
N#Cc1ccc(-c2cc(F)ccc2SC2(C(=O)O)CCC2)cc1 [Example 1G] | 1 to 50 nM
